Test results from publication PMC3175392, “Noninvasive In Vivo Quantification of Neutrophil Elastase Activity in Acute Experimental Mouse Lung Injury” (International Journal of Molecular Imaging, 2011).
Where a name gives a salt, the structure may show the parent alone.

Legend:
human PR3 = biological target: T1, human PR3 (Homo sapiens, UniProt P24158); assay: Inhibition of NE680 cleavage by human PR3; assay type: biochemical; conditions: NE680 0.5 μM as substrate; 30 min preincubation of enzyme with inhibitor, room temperature; read-out: IC50 on NE680 activation by human PR3
T1 construct: human neutrophil PR3 from Athens Research and Technology (Athens, GA); purchased Athens Research and Technology (Athens, GA); host or cells: human neutrophils
T1 sequence (P24158 28-256): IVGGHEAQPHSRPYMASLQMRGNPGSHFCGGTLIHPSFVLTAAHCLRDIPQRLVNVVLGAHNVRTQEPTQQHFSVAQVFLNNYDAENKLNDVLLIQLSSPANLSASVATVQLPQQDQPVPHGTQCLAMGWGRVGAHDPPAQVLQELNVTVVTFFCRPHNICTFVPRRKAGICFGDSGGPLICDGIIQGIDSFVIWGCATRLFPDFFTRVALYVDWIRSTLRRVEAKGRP
Method: Activation and protease selectivity of NE680 were determined with NE and closely related enzymes including PR3, Cat G, Cat B, and MMP-9. The assays were performed with 0.05 μM of enzyme and 0.5 μM NE680 in the optimized buffer and pH for each enzyme. Human NE was purchased from Innovative Research (Novi, MI), recombinant mouse NE, mouse Cat B, and active mouse Cat C from R and D Systems (Minneapolis, MN), human neutrophil PR3 from Athens Research and Technology (Athens, GA), and human neutrophil Cat G and recombinant human MMP-9 from BIOMOL International (Plymouth Meeting, PA). […] All the reactions were monitored at various time points at excitation/emission wavelengths of 663/690 nm with a cutoff at 665 nm using a fluorescence plate reader (Molecular Devices, San Leandro, CA). The released fluorescence is shown after subtracting background fluorescence of the agent without enzyme.
The IC50 against human NE and human PR3 were determined as described above using NE680 (0.5 μM). […]

neutrophil influx = assay: Lung histology (H and E) after in vivo imaging, neutrophil influx; parameters: species or system mouse; conditions: single treatment 5 mg/kg i.n. 18 h after LPS; H and E sections
NE [1] = biological target: T2, NE (Mus musculus, UniProt Q3UP87); assay: NE680 activation ex vivo in lung sections; conditions: 1 μM NE680, 37°C, 5 h
T2 construct: from tissue; host or cells: lung of LPS/fMLP-challenged CD-1 mice (frozen sections or in vivo)
T2 sequence (Q3UP87 27-265): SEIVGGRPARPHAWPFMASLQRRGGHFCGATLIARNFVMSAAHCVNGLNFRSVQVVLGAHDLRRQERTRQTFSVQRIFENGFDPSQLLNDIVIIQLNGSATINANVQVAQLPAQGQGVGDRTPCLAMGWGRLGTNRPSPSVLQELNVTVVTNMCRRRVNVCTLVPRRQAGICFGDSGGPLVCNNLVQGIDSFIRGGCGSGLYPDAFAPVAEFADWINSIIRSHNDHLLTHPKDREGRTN
Text: To validate the specificity of NE680 activation by NE present in lungs, mice with lung inflammation and control healthy mice (which had not received NE680) were euthanized by CO2 inhalation and lungs were removed and snap frozen in OCT. […] Fluorescence, as a measure of agent activation, was captured under fluorescence microscopy using appropriate filters (Zeiss Axioskop 2 MOT Plus). DAPI was used as a nuclear counterstain.

NE [2] = biological target: T2, NE; assay: In vivo FMT imaging of NE680 activation in LPS/fMLP acute lung injury
Text: Acute lung inflammation was induced in mice according to published protocols with slight modifications. Male CD-1 mice were purchased from Charles River Laboratories (Wilmington, MA) and used when they reached 8–10 weeks of age. Mice were housed in environmentally controlled specific-pathogen-free conditions with water and low-fluorescence mouse chow (Harlan Teklad, Madison, WI). All animal experimental procedures were approved by PerkinElmer's Institutional Animal Care and Use Committee and were in accordance with veterinarian requirements. On day 1, mice were challenged intranasally (i.n.) with 100 μg of LPS (E. coli 111 : B4, Sigma, St. Louis, MO) solubilized in 40 μL PBS or PBS only. Eighteen hours later, mice received an intranasal instillation of the chemotactic peptide N-formyl-met-leu-phe (fMLP, Sigma, St. Louis, MO) at 200 nM in 40 μL PBS together with 4 nmoles of NE680.
For in vivo imaging, mice were first depilated using Nair and placed in a fluorescence molecular tomography (FMT) 2500 system (PerkinElmer, Boston, MA) imaging chamber to which is delivered a controlled amount of isoflurane/oxygen mixture keeping the mice anesthetized. Three-dimensional regions of interest (ROIs) were drawn around the chest area applying a universal threshold, equal to 40% of the mean concentration value of fluorescence in the LPS/fMLP mice (in nM). The total amount (in picomole) of fluorochrome was automatically calculated relative to internal standards generated with known concentrations of the appropriate fluorochrome. For each study, the mean fluorescence of the LPS/fMLP group was equaled to 100%, and then each mouse in that study was normalized accordingly. Shown are the grouped results of 3 studies, as the percentage of LPS/fMLP Lung Fluorescence (means ± S.E.M.).

[3] = Pharmacokinetics in CD-1 mice after i.v. injection; assay type: in vivo, mouse; conditions: female CD-1 mice, 2 nmol i.v. bolus in PBS, n = 3 mice per time point, HPLC of plasma; data not shown
Method: Twenty-four female retired breeder CD-1 mice (age 12–16 weeks, Charles River Laboratories, Wilmington, MA) received a bolus intravenous (i.v.) injection of NE680 (2 nmol in PBS). Terminal blood samples (n = 3 mice per time point) were collected by cardiac puncture from each mouse (following carbon dioxide asphyxiation). Plasma was collected by centrifugation (15,000 rpm for 10 min at 4°C) in EDTA-containing tubes. Aliquots (50 μL) of each plasma sample were placed in Eppendorf tubes. Cold methanol (150 μL) was added and the tubes were vortexed followed by centrifugation at 12,000 rpm and 4°C for 10 minutes. Approximately 110 μL of the supernatants were transferred to HPLC vials for analysis. Studies were conducted in accordance with and approved by PerkinElmer's IACUC Institutional Animal Care and Use Committee guidelines.
HPLC analyses were performed on a Waters model 2695 (Waters Corporation, Milford, MA). The PDA, Waters model 2998, was set to scan from 225 nm to 800 nm. The wavelength corresponding to the absorbance maximum of the fluorophore, 675 nm, was extracted from the PDA trace. The fluorescence spectrophotometer was set to an excitation wavelength of 675 nm and emission was monitored at 693 nm. Samples were analyzed on a C4, 300 Å, 5 μm, 150 × 4.6 mm HPLC column (Phenomenex, Torrance, CA). The aqueous mobile phase contained 25 mM ammonium formate, pH 8.5. […]

[4] = Fluorescence biodistribution in excised organs; assay type: in vivo, mouse; conditions: organs excised from 3 LPS/fMLP mice immediately after imaging, reflectance mode, mean fluorescence counts/energy
Method: Immediately following imaging, a cohort of mice were sacrificed (n = 3 per group), organs excised, and imaged in reflectance mode using the FMT 2500. The mean fluorescence intensity was measured after drawing an ROI around each organ. Data are expressed as mean fluorescence (in counts/energy) reported as means ± S.E.M.

Mouse plasma stability = assay type: in vitro ADME; conditions: normal mouse plasma diluted 1:4 in PBS pH 7.40 with 1 mM EDTA, 37°C, 24 h; HPLC; data not shown
Method: The agent was incubated in normal mouse plasma (Innovative Research, Novi, MI) diluted 1 : 4 in PBS, pH 7.40 with 1 mM EDTA, at 37°C for 24 h. The stability of the agent was analyzed by HPLC.
HPLC analyses were performed on a Waters model 2695 (Waters Corporation, Milford, MA). The PDA, Waters model 2998, was set to scan from 225 nm to 800 nm. The wavelength corresponding to the absorbance maximum of the fluorophore, 675 nm, was extracted from the PDA trace. The fluorescence spectrophotometer was set to an excitation wavelength of 675 nm and emission was monitored at 693 nm. Samples were analyzed on a C4, 300 Å, 5 μm, 150 × 4.6 mm HPLC column (Phenomenex, Torrance, CA). The aqueous mobile phase contained 25 mM ammonium formate, pH 8.5. Samples were eluted with acetonitrile at a flow rate of 1 mL/min. A gradient of 15% to 85% organic provided sufficient resolution. Standards were prepared with NE680 (0–2.5 μM) in mouse plasma. Standard curves had correlation coefficients >0.98.

mouse NE = assay: In vitro activation and protease selectivity of NE680 (mouse NE versus related enzymes); assay type: biochemical; conditions: at 5 h, 0.5 μM NE680, 0.05 μM enzyme, room temperature, optimized buffer for each enzyme
Method: Activation and protease selectivity of NE680 were determined with NE and closely related enzymes including PR3, Cat G, Cat B, and MMP-9. The assays were performed with 0.05 μM of enzyme and 0.5 μM NE680 in the optimized buffer and pH for each enzyme. Human NE was purchased from Innovative Research (Novi, MI), recombinant mouse NE, mouse Cat B, and active mouse Cat C from R and D Systems (Minneapolis, MN), human neutrophil PR3 from Athens Research and Technology (Athens, GA), and human neutrophil Cat G and recombinant human MMP-9 from BIOMOL International (Plymouth Meeting, PA). The reaction buffers were as follows: for human NE, 100 mM Tris (pH 7.5); for mouse NE, 50 mM Tris (pH 7.5), 1 M NaCl, 0.05% Brij-35; for Cat B, 25 mM MES (pH 5.0), 0.5 mM DTT (preactivation in 25 mM MES pH 5.0, 5 mM DTT for 15 min at room temperature); for MMP-9, 50 mM Tris (pH 7.5), 10 mM CaCl2, 150 mM NaCl, 0.05% Brij 35; for Cat G, 100 mM Tris (pH 7.5), 1.6 M NaCl; for human PR3, 100 mM Tris (pH 7.5), 500 mM NaCl. Mouse NE was activated by active mouse Cat C in 50 mM MES, 50 mM NaCl, pH5.5 at 37°C for 2 h. Reactions were carried out at room temperature in 250 μL in 96 well plates with black sides and bottom. All the reactions were monitored at various time points at excitation/emission wavelengths of 663/690 nm with a cutoff at 665 nm using a fluorescence plate reader (Molecular Devices, San Leandro, CA). The released fluorescence is shown after subtracting background fluorescence of the agent without enzyme.

[5] = 10 μm frozen sections, fluorescence microscopy

Row | Molecule | IC50 (human PR3) [nM] | effect on neutrophil influx into the lung (neutrophil influx) | suppression of NE680 activation in ALI lung sections (NE [1]; sivelestat 40 nM) | suppression of NE680 activation in ALI lung sections (NE [1]; sivelestat 0.4 and 4 μM) | median concentration of lung fluorescence (NE [2]; ALI mice treated with sivelestat 5 mg/kg i.n. 15 min before fMLP and NE680, n = 12) [nM] | lung fluorescence as percentage of LPS/fMLP group (NE [2]; ALI mice treated with sivelestat 5 mg/kg i.n. 15 min before fMLP and NE680, mean ± S.E.M., n = 12, P = 0.0144) [%] | half-life in plasma (t 1/2) [3] [h] | NE680 signal in lungs relative to all other tissues [4] | fluorescence (agent activation) in lung sections from control mice (NE [1]; [5]) | fluorescence (agent activation) in lung sections from mice with ALI (NE [1]; [5]) | stability in mouse plasma (Mouse plasma stability) | cleavage by mouse NE relative to Cat G (mouse NE; human Cat G) [fold] | cleavage by mouse NE relative to MMP-9 (mouse NE; human MMP-9) [fold] | cleavage by mouse NE relative to Cat B (mouse NE; mouse Cat B) | average total fluorescence per lung (NE [2]; LPS/fMLP mice) | magnitude of signal in positive control animals across studies (NE [2]; LPS/fMLP mice, range between studies) | average total fluorescence per lung (NE [2]; control mice) [pmol fluorescence/lung] | median concentration of lung fluorescence (NE [2]; healthy controls, n = 12, 4 nmoles NE680 i.n., FMT 5 h later) [nM] | median concentration of lung fluorescence (NE [2]; mice with LPS/fMLP ALI, n = 16, 4 nmoles NE680 i.n., FMT 5 h later) [nM]
1 | CC(C)(C)C(=O)Oc1ccc(S(=O)(=O)Nc2ccccc2C(=O)NCC(=O)O)cc1 [sivelestat, N-{2-[({4-[(2,2-dimethylpropanoyl)oxy]phenyl}sulfonyl)amino]benzoyl} glycine sodium salt, reference compound] | 700 | not inhibited | significantly inhibited | almost completely blocking | 73 | 53.57 ± 10.34 | – | – | – | – | – | – | – | – | – | – | – | – | –
2 | PMAVVQSVP [NE680] | – | – | – | – | – | – | 3 | 30- to 170 fold | little or no apparent fluorescence | strong fluorescence | optically stable and remains quenched | > 10 | > 30 | over 250 fold | ~ 100 pmol fluorescence/lung | 30–190 pmols fluorescence/lung | < 5 | 0 | 164
